Experimental data published in ChEMBL document CHEMBL5291721, “A preclinical secondary pharmacology resource illuminates target-adverse drug reaction associations of marketed drugs” (Nat Commun, 2023).

Tests used:
[1] = target: Delta-type opioid receptor (Homo sapiens, UniProt P41143)
Thromboxane A2 receptor = target: T1, Thromboxane A2 receptor (Homo sapiens, UniProt P21731)
T1 sequence (P21731 whole entry): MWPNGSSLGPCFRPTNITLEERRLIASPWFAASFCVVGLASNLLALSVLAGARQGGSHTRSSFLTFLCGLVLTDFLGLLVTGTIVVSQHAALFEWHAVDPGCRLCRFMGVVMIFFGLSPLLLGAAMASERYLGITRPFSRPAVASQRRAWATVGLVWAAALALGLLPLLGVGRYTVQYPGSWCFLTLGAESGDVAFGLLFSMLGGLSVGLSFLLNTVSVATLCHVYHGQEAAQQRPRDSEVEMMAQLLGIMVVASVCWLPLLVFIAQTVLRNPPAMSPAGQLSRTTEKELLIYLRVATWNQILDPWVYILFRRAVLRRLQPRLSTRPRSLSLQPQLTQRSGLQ

Adenosine receptor A1 = target: T2, Adenosine receptor A1 (Homo sapiens, UniProt P30542)
T2 sequence (P30542 whole entry): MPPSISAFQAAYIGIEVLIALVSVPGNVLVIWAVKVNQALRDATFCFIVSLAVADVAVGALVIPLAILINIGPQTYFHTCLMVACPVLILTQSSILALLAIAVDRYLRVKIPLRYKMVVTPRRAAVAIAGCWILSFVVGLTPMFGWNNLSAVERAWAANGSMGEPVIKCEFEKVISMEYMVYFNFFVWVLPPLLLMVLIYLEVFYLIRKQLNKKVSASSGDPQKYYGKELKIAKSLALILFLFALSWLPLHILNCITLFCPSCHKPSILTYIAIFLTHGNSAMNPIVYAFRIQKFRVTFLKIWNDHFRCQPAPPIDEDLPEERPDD

[2] = target: T3, Equilibrative nucleoside transporter 1 (Homo sapiens, UniProt Q99808)
T3 sequence (Q99808 whole entry): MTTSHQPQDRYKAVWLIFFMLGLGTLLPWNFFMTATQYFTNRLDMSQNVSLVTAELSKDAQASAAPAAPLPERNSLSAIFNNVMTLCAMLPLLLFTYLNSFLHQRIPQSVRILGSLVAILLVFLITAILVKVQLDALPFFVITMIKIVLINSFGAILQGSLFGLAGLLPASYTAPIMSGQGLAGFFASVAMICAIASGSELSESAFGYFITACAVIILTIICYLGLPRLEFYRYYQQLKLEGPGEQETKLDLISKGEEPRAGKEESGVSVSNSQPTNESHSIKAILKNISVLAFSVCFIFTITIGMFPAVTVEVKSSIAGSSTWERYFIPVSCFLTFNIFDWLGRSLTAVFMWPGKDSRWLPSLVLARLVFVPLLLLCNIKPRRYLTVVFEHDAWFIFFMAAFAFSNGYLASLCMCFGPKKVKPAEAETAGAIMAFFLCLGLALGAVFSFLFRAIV

[3] = target: T4, Prostaglandin G/H synthase 1 (Rattus norvegicus, UniProt Q63921); type: functional
T4 sequence (Q63921 whole entry): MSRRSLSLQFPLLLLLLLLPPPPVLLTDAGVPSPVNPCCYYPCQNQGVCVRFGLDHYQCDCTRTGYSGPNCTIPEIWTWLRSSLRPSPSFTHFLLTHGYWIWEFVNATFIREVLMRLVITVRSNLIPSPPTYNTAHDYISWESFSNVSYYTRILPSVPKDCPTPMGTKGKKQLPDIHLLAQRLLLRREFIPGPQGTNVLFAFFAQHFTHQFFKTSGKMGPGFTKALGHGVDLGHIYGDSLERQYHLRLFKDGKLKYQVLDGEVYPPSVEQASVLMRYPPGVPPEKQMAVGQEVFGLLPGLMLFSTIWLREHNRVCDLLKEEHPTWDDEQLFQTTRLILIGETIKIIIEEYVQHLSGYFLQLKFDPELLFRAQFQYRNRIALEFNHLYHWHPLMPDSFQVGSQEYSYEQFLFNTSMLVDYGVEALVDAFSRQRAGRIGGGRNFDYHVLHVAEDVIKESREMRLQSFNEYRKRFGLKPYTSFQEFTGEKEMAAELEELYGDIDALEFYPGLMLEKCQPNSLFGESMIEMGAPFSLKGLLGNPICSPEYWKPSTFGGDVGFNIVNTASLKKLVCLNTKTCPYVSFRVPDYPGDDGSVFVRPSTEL

Melanocortin receptor 3 = Melanocortin receptor 3 (Homo sapiens, UniProt P41968)
Chain of Melanocortin receptor 3 (P41968 whole entry): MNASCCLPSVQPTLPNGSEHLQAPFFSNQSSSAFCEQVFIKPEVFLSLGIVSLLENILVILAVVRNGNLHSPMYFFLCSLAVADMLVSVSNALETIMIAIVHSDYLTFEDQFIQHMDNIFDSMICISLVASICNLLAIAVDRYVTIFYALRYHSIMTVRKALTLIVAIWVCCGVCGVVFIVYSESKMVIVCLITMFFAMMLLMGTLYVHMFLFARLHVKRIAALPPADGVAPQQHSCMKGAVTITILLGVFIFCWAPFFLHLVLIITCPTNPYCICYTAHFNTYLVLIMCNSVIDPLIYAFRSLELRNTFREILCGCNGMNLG

[4] = target: Glutamate receptor ionotropic, NMDA 1 (Rattus norvegicus, UniProt P35439)
[5] = target: T5, Endothelin receptor type B (Homo sapiens, UniProt P24530)
T5 sequence (P24530 whole entry): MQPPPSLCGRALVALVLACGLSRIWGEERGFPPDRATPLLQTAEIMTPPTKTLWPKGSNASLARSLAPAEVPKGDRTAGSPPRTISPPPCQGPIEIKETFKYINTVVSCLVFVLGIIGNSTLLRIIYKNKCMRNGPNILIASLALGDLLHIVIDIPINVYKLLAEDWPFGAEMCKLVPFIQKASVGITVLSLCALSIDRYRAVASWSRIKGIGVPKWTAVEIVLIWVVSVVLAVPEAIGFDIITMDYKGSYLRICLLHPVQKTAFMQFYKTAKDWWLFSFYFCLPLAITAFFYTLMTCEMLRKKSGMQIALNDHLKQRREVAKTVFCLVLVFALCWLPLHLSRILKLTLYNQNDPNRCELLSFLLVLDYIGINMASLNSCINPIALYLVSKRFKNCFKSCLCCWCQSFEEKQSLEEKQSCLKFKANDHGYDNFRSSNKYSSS

Cannabinoid receptor 1 = Cannabinoid receptor 1 (Homo sapiens, UniProt P21554)
Chain of Cannabinoid receptor 1 (P21554 whole entry): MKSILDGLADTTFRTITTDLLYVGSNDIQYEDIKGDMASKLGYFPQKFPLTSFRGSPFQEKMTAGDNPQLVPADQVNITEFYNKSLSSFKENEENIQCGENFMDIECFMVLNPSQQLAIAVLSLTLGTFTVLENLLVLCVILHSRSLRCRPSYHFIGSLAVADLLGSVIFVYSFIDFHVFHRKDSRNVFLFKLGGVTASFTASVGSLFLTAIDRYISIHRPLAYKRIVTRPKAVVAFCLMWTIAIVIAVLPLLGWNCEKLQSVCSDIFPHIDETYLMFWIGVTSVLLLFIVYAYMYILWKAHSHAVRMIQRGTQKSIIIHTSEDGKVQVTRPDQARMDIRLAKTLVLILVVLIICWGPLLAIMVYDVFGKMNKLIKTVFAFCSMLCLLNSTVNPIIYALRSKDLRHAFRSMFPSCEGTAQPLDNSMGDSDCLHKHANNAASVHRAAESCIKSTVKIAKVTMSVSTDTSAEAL

B1 bradykinin receptor = target: T6, B1 bradykinin receptor (Homo sapiens, UniProt P46663)
T6 sequence (P46663 whole entry): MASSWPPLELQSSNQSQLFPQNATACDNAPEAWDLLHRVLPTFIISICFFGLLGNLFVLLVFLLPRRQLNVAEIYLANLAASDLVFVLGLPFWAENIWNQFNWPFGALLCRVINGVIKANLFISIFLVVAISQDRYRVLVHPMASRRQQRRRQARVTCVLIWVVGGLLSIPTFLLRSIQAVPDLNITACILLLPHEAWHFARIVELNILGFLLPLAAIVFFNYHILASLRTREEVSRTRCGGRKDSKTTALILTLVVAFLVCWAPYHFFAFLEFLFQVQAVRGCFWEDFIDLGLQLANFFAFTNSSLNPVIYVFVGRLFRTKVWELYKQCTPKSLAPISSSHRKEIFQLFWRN
Note: assay procedure not described here.

Chain of Delta-type opioid receptor (P41143 whole entry): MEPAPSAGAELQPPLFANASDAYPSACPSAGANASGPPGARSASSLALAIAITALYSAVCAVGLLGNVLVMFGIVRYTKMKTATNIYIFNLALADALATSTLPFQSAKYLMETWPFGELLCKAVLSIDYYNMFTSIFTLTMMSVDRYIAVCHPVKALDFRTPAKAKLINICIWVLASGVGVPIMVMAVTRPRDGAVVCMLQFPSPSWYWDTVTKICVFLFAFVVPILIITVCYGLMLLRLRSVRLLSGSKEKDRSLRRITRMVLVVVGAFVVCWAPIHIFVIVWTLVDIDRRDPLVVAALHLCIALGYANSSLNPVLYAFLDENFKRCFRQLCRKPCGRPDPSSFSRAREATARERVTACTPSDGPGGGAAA

Compound: COc1cc2nc(N3CCN(C(=O)c4ccco4)CC3)nc(N)c2cc1OC [PRAZOSIN]
- AC50 [1]: > 10 µM
- AC50 (Thromboxane A2 receptor): > 30 µM
- AC50 (Adenosine receptor A1): > 30 µM
- AC50 [2]: > 30 µM
- AC50 [3]: > 30 µM
- AC50 (Melanocortin receptor 3): > 30 µM
- AC50 [4]: > 10 µM
- AC50 [5]: > 30 µM
- AC50 (Cannabinoid receptor 1): > 10 µM
- AC50 (B1 bradykinin receptor): > 30 µM
